From ChEMBL document CHEMBL5247631, “Ferroptosis-related small-molecule compounds in cancer therapy: Strategies and applications” (Eur J Med Chem, 2022) come the findings set out here.

The pIC50 is −log10 of the IC50, conventionally taken in molar units.

pIC50: −log10 of the molar value.

A short description of experiment [1]: Cytotoxicity against human BJeLR cells overexpress oncogenic RAS assessed as induction of cell death. Type of experiment: functional, cell-based.
Experiment [2] has as its system HCT-116. Description: Antiproliferative activity against human HCT-116 cells assessed as reduction in cell viability incubated for 48 hrs by MTT assay. Type of experiment: functional, cell-based. Particulars: HCT-116, 48 h.
The test system of experiment [3] is DLD-1. Description: Antiproliferative activity against human DLD-1 cells assessed as reduction in cell viability incubated for 48 hrs by MTT assay. Type of experiment: functional, cell-based. Particulars: DLD-1, 48 h.
Experiment [4] can be described thus: Induction of ferroptosis in human BJeLR cells assessed as inhibition of (cystine-glutamate antiporter) system Xc- mediated cystine transport. Type of experiment: functional, cell-based. Conditions: bjelr cell.
Experiment [5] in a line: Anticancer activity against human BJeLR cells assessed as reduction in cell viability incubated for 24 hrs by CellTiter-Glo luminescent assay. Type of experiment: functional, cell-based. On the technique in general: In ATP-based viability assays light output follows the ATP content of the culture.
Experiment [6] has as its system SU-DHL-16. Description: Anticancer activity against human SU-DHL-16 cells assessed as reduction in cell viability incubated for 24 hrs by CellTiter-Glo luminescent assay. Type of experiment: functional, cell-based. Particulars: SU-DHL-16, 24 h.
In experiment [7] the test system is DOHH-2. Description: Anticancer activity against human DOHH-2 cells assessed as reduction in cell viability incubated for 24 hrs by CellTiter-Glo luminescent assay. Type of experiment: functional, cell-based. Particulars: DOHH-2, 24 h.
Experiment [8] in a line: Anticancer activity against human OCI-Ly8 cells assessed as reduction in cell viability incubated for 24 hrs by CellTiter-Glo luminescent assay. Type of experiment: functional, cell-based. Particulars: OCI-Ly8, 24 h.
For experiment [9], the system named is SU-DHL-2. Description: Anticancer activity against human SUDHL2 cells assessed as reduction in cell viability incubated for 24 hrs by CellTiter-Glo luminescent assay. Type of experiment: functional, cell-based. Particulars: SU-DHL-2, 24 h.
Experiment [10] relates to SU-DHL-6. Description: Anticancer activity against human SU-DHL-6 cells assessed as reduction in cell viability incubated for 24 hrs by CellTiter-Glo luminescent assay. Type of experiment: functional, cell-based. Particulars: SU-DHL-6, 24 h.
The subject of experiment [11] is SU-DHL10. Description: Anticancer activity against human SU-DHL-10 cells assessed as reduction in cell viability incubated for 24 hrs by CellTiter-Glo luminescent assay. Type of experiment: functional, cell-based. Particulars: SU-DHL10, 24 h.
In experiment [12] the test system is SU-DHL-5. Description: Anticancer activity against human SU-DHL-5 cells assessed as reduction in cell viability incubated for 24 hrs by CellTiter-Glo luminescent assay. Type of experiment: functional, cell-based. Conditions: SU-DHL-5, 24 h.
Experiment [13] relates to SK-MEL-28. Description: Antiproliferative activity against human SK-MEL-28 cells harboring BRAF V600E mutant assessed as cell viability incubated for 72 hrs by crystal violet staining based assay. Type of experiment: functional. Particulars: SK-MEL-28, 72 h.
Experiment [14] relates to G-361. Description: Antiproliferative activity against human G-361 cells harboring BRAF V600E mutant assessed as cell viability incubated for 72 hrs by crystal violet staining based assay. Type of experiment: functional. Conditions: G-361, 72 h.
The nature of experiment [15]: Anticancer activity against human PHMLER expressing CD24low phenotype cells assessed as reduction in cell viability incubated for 72 hrs. Type of experiment: functional, cell-based.
The test system of experiment [16] is MDA-MB-231. Description: Antiproliferative activity against human MDA-MB-231 cells assessed as inhibition of cell viability incubated for 72 hrs by MTT assay. Type of experiment: functional, cell-based. Conditions: MDA-MB-231, 72 h.
Experiment [17] deals with HT-1080. Description: Induction of ferroptosis in human HT-1080 cells assessed as inhibition of (cystine-glutamate antiporter) system Xc- mediated cystine transport. Type of experiment: functional, cell-based.
In experiment [18] the test system is LN-229. Description: Induction of ferroptosis in human LN-229 cells assessed as GPX4 degradation. Type of experiment: functional, cell-based.
Experiment [19] deals with U-118-MG. Description: Induction of ferroptosis in human U-118-MG cells assessed as GPX4 degradation. Type of experiment: functional, cell-based.
The test system of experiment [20] is ES-2. Description: Anticancer activity against human ES2 cells assessed as reduction in cell viability incubated for 72 hrs by Alamar Blue viability assay. Type of experiment: functional, cell-based. Conditions: ES-2, 72 h. Background: Resazurin is reduced to fluorescent resorufin, in cell work by metabolically active cells.
Experiment [21] concerns NCI-N87. Description: Anticancer activity against human NCI-N87 cells assessed as inhibition of cell viability incubated for 24 hrs by CCK-8 assay. Type of experiment: functional, cell-based. Particulars: NCI-N87, 24 h. (Tetrazolium dyes change colour on reduction, which living cells bring about.)
For experiment [22], the system named is AGS. Description: Anticancer activity against human AGS cells assessed as inhibition of cell viability incubated for 24 hrs by CCK-8 assay. Type of experiment: functional, cell-based.

For `O=S(=O)(c1ccc2c(c1)C(=NO)c1cc(S(=O)(=O)N3CCCCC3)ccc1-2)N1CCCCC1`, in experiment [1], the pIC50 is under 6.00. As for `COc1ccc2oc(=N)c(C(N)=S)cc2c1`, the negative logarithm of the IC50 (pIC50) in [2] was 4.35; in experiment [3], 4.30.

As for `CC(C)Oc1ccc(CN2CCNCC2)cc1-n1c(CN2CCN(C(=O)COc3ccc(Cl)cc3)CC2)nc2ccccc2c1=O`, the negative logarithm of the IC50 (pIC50) in [4] is 6.05.

Regarding `CC(C)Oc1ccc(C(=O)Cn2ccnc2)cc1-n1c(CN2CCN(C(=O)COc3ccc(Cl)cc3)CC2)nc2ccccc2c1=O`, the negative-log IC50 (pIC50) in [5] is 8.52; in [6], 7.92; in experiment [7], 7.85; in [8] it was 9.00; in experiment [9], 7.68; in [10], 9.00. Moreover, the negative-log IC50 (pIC50) was 8.40 in experiment [11] and 9.00 in [12]. `Cc1cc(-c2nc(-c3ccc(OC(F)(F)F)cc3)no2)nn1Cc1ccnc(N2CCN(C3CC3)CC2)c1`: the figures for the pIC50 in experiment [13] and in [14] were 5.62 and 5.32, respectively. Turning to `C#CCN[C@@H]1C=C[C@]2(O[C@H]([C@@H](CC)C(=O)[C@@H](C)[C@@H](O)[C@H](C)[C@@H]3O[C@@H]([C@@H](CC)C(=O)O)CC[C@@H]3C)[C@@H](C)C[C@H]2C)O[C@@]12CC[C@@](C)([C@H]1CC[C@](O)(CC)[C@H](C)O1)O2`, the negative logarithm of the IC50 (pIC50) in [15] is 7.00. Turning to `C=C1C(=O)O[C@H]2[C@H]1CC/C(COC(=O)/C=C/c1c(OC)cccc1OC)=C\CC[C@@]1(C)O[C@@H]21`, in experiment [16], the negative-log IC50 (pIC50) is 6.47. Take `COC(=O)c1ccc([C@H]2c3[nH]c4ccccc4c3C[C@H](C(=O)OC)N2C(=O)CCl)cc1`: the pIC50 in experiment [4] and in experiment [17] was 7.00 each time. Turning to `C#Cc1nc(C2=C(C)[C@H](O)CC2)cs1`, the pIC50 in experiment [17] was 4.12. Consider `O=S(=O)(NC1CCCCC1)c1ccc2c(c1)C(=NO)c1cc(S(=O)(=O)NC3CCCCC3)ccc1-2`, for which the pIC50 in experiment [18] was 5.38; in experiment [19], 5.59. As for `CC1CC[C@@]23C[C@H](O)C(=O)[C@@]2(O)[C@]1(C)[C@H](OC(=O)CCl)C[C@@H](C1=CCn2c(=O)n(-c4ccccc4)c(=O)n2C1)[C@@H]3C` (stereo not given in full), in experiment [20], the negative-log IC50 (pIC50) is 5.80. On to `C[C@@H]1CC[C@@]2(OC1)O[C@H]1C[C@H]3[C@@H]4CC=C5C[C@@H](O)C[C@@H](O[C@H]6O[C@H](C)[C@H](O)[C@H](O)[C@H]6O[C@@H]6O[C@@H](C)[C@H](O)[C@@H](O)[C@H]6O)[C@]5(C)[C@H]4CC[C@]3(C)[C@H]1[C@@H]2C`, for which the values for the negative-log IC50 (pIC50) in experiment [21] and in experiment [22] were 4.67 and 4.99, respectively.

With `CCCC[S@@](=N)(=O)CC[C@@H](N)C(=O)O`, in experiment [4], the pIC50 was over 5.00.
